Source: ChEMBL document CHEMBL4385605, “Synthesis and Structure-Affinity Relationships of Spirocyclic Benzopyrans with Exocyclic Amino Moiety” (J Med Chem, 2019)
Activity calls are given as the source filed them. The rule behind the calls is not given here.

Columns and labels:
HepG2 = assay: Cytotoxicity against human HepG2 cells at 1 to 100 uM incubated for 20 hrs under serum free condition by MTT assay; format: cell-based; conditions: hepg2, 20 h
CYP2D6 = CYP2D6 (Homo sapiens, UniProt P10635); assay: Inhibition of recombinant human CYP2D6 at 1 uM by fluorescence assay relative to control; format: ADME
[1] = biological target: Sigma non-opioid intracellular receptor 1 (Cavia porcellus, UniProt Q60492); assay: Displacement of [3H](+)-pentazocine from sigma 1 receptor in guinea pig brain cortex membranes after 120 mins by scintillation counting analysis; format: cell membranes
[2] = biological target: Delta-type opioid receptor (Rattus norvegicus, UniProt P33533); assay: Displacement of [3H]DPDPE from delta opioid receptor in rat membranes after 120 mins by scintillation counting analysis; format: cell membranes
[3] = biological target: Sigma non-opioid intracellular receptor 1 (Homo sapiens, UniProt Q99720); assay: Displacement of [3H](+)-pentazocine from sigma 1 receptor in human RPMI8226 cell membranes incubated for 2 hrs under shaking by scintillation counting analysis
[4] = biological target: T1, Alpha-1A adrenergic receptor (Homo sapiens) (UniProt P35348); assay: Binding affinity to alpha 1a adrenergic receptor (unknown origin) at 1 uM relative to control
T1 sequence (whole entry): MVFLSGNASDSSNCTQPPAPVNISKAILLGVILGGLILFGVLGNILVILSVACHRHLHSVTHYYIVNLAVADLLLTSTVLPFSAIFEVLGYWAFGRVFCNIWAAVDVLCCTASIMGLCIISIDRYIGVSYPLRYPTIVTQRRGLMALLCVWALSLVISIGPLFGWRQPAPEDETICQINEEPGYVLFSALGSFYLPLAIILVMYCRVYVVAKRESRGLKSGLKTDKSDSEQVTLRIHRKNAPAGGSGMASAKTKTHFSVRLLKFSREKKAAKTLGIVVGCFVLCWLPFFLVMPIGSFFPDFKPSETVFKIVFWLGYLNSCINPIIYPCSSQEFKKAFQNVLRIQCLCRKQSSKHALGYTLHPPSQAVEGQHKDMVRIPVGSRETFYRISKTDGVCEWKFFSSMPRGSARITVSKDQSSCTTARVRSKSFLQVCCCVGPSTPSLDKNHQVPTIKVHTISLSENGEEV

[5] = biological target: Sigma non-opioid intracellular receptor 1 (Rattus norvegicus) (UniProt Q9R0C9); assay: Antagonist activity at sigma 1 receptor in rat PC12 cells assessed as suppression of opipramol-induced inhibition of KCl-stimulated intracellular calcium influx at 10 nM preincubated for 5 mins followed by opipramol addition for 5 mins and subsequent KCl-stimulation by fura-2-AM dye based fluorescence assay; format: cell-based
Sequence of Sigma non-opioid intracellular receptor 1 (Rattus norvegicus) (Q9R0C9 whole entry): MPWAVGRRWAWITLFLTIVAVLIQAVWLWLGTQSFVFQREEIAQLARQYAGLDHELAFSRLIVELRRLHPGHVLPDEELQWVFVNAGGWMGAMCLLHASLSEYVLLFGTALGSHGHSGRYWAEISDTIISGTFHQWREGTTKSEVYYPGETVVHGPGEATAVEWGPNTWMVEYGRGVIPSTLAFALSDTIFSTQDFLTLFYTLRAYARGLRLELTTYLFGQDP

Sequence of Delta-type opioid receptor (P33533 whole entry): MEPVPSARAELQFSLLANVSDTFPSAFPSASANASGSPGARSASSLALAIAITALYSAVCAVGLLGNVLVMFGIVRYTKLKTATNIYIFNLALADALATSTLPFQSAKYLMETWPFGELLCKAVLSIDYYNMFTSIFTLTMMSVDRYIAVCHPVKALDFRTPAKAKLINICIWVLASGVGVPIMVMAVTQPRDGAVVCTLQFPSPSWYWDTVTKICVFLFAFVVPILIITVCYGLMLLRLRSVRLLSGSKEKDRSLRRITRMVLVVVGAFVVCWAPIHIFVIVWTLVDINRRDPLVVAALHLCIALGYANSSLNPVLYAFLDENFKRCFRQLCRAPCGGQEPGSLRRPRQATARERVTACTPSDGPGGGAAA
Sequence of Sigma non-opioid intracellular receptor 1 (Homo sapiens, UniProt Q99720) (Q99720 whole entry): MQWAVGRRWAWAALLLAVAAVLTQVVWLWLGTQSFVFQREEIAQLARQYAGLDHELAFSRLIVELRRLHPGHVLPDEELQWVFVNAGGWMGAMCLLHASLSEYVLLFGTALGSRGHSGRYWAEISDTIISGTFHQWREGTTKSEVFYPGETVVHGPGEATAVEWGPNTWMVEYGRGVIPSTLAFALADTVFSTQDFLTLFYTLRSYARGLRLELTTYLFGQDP
Sequence of CYP2D6 (P10635 whole entry): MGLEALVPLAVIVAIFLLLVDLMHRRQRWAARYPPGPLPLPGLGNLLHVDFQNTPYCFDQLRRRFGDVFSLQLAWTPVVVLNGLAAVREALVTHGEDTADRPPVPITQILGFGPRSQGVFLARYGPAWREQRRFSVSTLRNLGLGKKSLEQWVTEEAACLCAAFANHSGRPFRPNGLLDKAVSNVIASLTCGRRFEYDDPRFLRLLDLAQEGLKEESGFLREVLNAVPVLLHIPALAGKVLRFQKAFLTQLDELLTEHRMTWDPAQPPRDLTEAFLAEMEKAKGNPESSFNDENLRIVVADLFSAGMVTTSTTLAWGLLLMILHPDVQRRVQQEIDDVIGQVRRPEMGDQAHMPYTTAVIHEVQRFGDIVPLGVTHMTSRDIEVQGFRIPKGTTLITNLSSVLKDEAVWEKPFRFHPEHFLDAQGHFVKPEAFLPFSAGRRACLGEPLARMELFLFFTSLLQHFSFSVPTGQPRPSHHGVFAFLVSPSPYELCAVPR
Sequence of Sigma non-opioid intracellular receptor 1 (Cavia porcellus, UniProt Q60492) (Q60492 whole entry): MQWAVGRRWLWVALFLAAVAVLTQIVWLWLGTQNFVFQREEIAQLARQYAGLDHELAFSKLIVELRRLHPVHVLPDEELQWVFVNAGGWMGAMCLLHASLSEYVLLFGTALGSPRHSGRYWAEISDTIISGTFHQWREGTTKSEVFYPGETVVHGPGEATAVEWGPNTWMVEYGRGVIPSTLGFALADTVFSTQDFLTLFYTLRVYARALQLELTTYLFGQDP

With `COC1Cc2ccccc2[C@]2(CC[C@H](N(C)CC3CCCCC3)CC2)O1` (some centres not stated) the Activity (HepG2) was “Non-Toxic”, the inhibition at 1 µM (CYP2D6) was over 90% and the Ki [1] was 1.9 nM. It also gave a Ki [2] of 364 nM, a Ki [3] of 7.3 nM and an Activity [4] of 68%. The inhibition [5] was “Active”.
